In patent US9121026B2 (priority 2004, dated 2015):
Where “and” joins values, the source holds several entries; their conditions need not be identical. Equal values may be shown once.

Assays:
Assay type in all cases: cell-based, Saccharomyces cerevisiae
[1] = system: S. cerevisiae strain RE700A; assay: Growth inhibition of RE700A by 2-DG in liquid maltose medium (OD600, integral under growth curve)
Method: FIG. 1: Growth inhibition of S. cerevisiae strain RE700A at increasing 2-deoxy-glucose (2-DG) concentrations after incubation at 280 C for 20 h. RE700A was incubated for 20 h at 28° C. with maltose (2% (w/v)) as the sole carbon source and 2-DG at the concentrations indicated. The optical density was measured at 600 nm every 15 minutes and the integral under the growth curve was calculated. Inhibition of growth is shown in percent of growth of RE700A in the absence of 2-DG. The strain grew well in the presence of up to 0.5% (w/v) 2-DG.
(§1) Strain growth: The growth of the strains in liquid medium was determined by measuring the optical density at 600 nm. To obtain growth curves, measurements were performed every 15 min. Alternatively, start and endpoint (after 12-16 h) measurements were carried out.
The screening system used Saccharomyces cerevisiae RE700A, a yeast strain deprived of the seven most important glucose transporters (HXT1-7) (Reifenberger, E. et al., Molecular Microbiology 16:157-167 (1995)). The strain is not able to grow on glucose as the sole carbon source. It grows on maltose (2% (w/v)) as the sole carbon source. In addition, the strain grows well on maltose also in the presence of up to 0.5% (w/v) 2-deoxy-glucose (2-DG), a toxic glucose analogue, in the medium (FIG. 1). Growth is inhibited by 50% at a 2-DG concentration in liquid media of ˜1% (w/v) (FIG. 1).

[2] = system: RE700A e PPDR5-HXT7 (ET[PDR]); assay: Growth inhibition of ET[PDR] by 2-DG; details: 20 h 28° C., maltose, in percent of growth of RE700A
Method: (A) RE700A, ECFP and ET[PDR] were incubated 20 h at 28° C. with maltose (2% (w/v)) as the sole carbon source in the presence of the indicated 2-DG concentrations. The optical density was measured at 600 nm every 15 minutes and the integral under the growth curve was calculated. Inhibition of growth of ECFP and ET[PDR] is shown in percent of growth of RE700A. Growth of ECFP was inhibited by 39% at 0.005% (w/v) 2-DG, by 78% at 0.01% (w/v) 2-DG, by 91% at 0.03% (w/v) 2-DG and by 93% at 0.05% (w/v) 2-DG. Growth of ET[PDR] was inhibited by 52% at 0.005% (w/v) 2-DG, by 87% at 0.01% (w/v) 2-DG, by 94% at 0.03% (w/v) 2-DG and by 96% at 0.05% (w/v) 2-DG.
as §1

[3] = system: RE700A i PPDR5-HXT7 (IT[PDR]); assay: Growth inhibition of IT[PDR] by 2-DG; details: 20 h 28° C., maltose; for Inhibition of growth: IT[PDR], in percent of growth of RE700A
Method: (B) RE700A, ICFP and IT[PDR] were incubated 20 h at 28° C. with maltose (2% (w/v)) as the sole carbon source and the indicated 2-DG concentrations. The optical density was measured at 600 nm every 15 minutes and the integral under the growth curve is calculated. Inhibition of growth of ICFP and IT[PDR] is shown in percent of growth of RE700A. Growth of ICFP was inhibited by 15% at 0.01% (w/v) 2-DG, by 74% at 0.03% (w/v) 2-DG, by 80% at 0.05% (w/v) 2-DG and by 83% at 0.1% (w/v) 2-DG. Growth of IT[PDR] was inhibited by 21% at 0.01% (w/v) 2-DG, by 79% at 0.03% (w/v) 2-DG, by 88% at 0.05% (w/v) 2-DG and by 96% in 0.1% (w/v) 2-DG.
(§2) (A) Growth inhibition of RE700A i PPDR5-HXT7 (IT[PDR]), RE700A Δpdr1 tok1::PPDR5-HXT7, RE700A Δpdr3 tok1::PPDR5-HXT7 and RE700A Δpdr1,pdr3 tok1::PPDR5-HXT7 at increasing 2-DG concentrations. RE700A i PPDR5-HXT7 (IT[PDR]), RE700A Δpdr1 tok1::PPDR5-HXT7, RE700A Δpdr3 tok1::PPDR5-HXT7 and RE700A Δpdr1,pdr3 tok1::PPDR5-HXT7 were incubated 20 h at 28° C. with Maltose (2% (w/v)) as the sole carbon source and 2-DG concentrations as indicated. The optical density was measured at 600 nm every 15 minutes and the integral under the growth curve was calculated. Inhibition of growth caused by 2-DG is shown in percent. The growth of the strain RE700A tok1::PPDR5-HXT7 (IT[PDR]) was inhibited by 50% at 0.02% (w/v) 2-DG. Growth of the strains RE700A Δpdr1 tok1::PPDR5-HXT7 and RE700A Δpdr3 tok1::PPDR5-HXT7 was inhibited by 50% at 0.026% (w/v) 2-DG.
as §1

[4] = system: RE700A Δpdr3 tok1::PPDR5-HXT7; assay: Growth inhibition of RE700A Δpdr3 tok1::PPDR5-HXT7 by 2-DG; details: RE700A Δpdr3 tok1::PPDR5-HXT7, maltose, 20 h 28° C.
Method: as §2
All strains expressing HXT7 were tested for sensitivity to 2-DG. The strains expressing GFP under the control of PPDR5 were additionally analysed for GFP fluorescence in comparison to RE700Ae PPDR5-GFP (strain CQ[PDR]).

[5] = system: RE700A tok1::PPDR5long-HXT7; assay: Growth of RE700A tok1::PPDR5long-HXT7 in the presence of 2-DG; details: RE700A tok1::PPDR5long-HXT7, liquid media, 20 h 28° C.
Method: (B) Relative growth of RE700A tok1::PPDR5long-HXT7, RE700A Δpdr1 tok1::PPDR5long-HXT7, RE700A Δpdr3 tok1::PPDR5long-HXT7 and RE700A Δpdr1,3 tok1::PPDR5long-HXT7 in the presence of 2-DG. Cells were incubated for 20 h at 28° C. with 2-DG at different concentrations. […] The standard error of the mean (n=5) is indicated.

In the case of O=CC[C@@H](O)[C@H](O)[C@H](O)CO [2-DG, 2-deoxy-glucose], the “2-DG concentration at which growth is inhibited by 50%” value ([1]; liquid media, maltose) is reported as ~1 % (w/v), the “2-DG concentration up to which the strain grows well” value ([1]; maltose 2% (w/v) sole carbon source, 20 h, 28° C.) is reported as “up to 0.5 % (w/v)” and the Inhibition of growth ([2]; 0.005% (w/v) 2-DG) is reported as 52%. It also gave an Inhibition of growth ([2]; 0.01% (w/v) 2-DG) of 87%, an Inhibition of growth ([2]; 0.03% (w/v) 2-DG) of 94% and an Inhibition of growth ([2]; 0.05% (w/v) 2-DG) of 96%. For the same compound, the Inhibition of growth ([3]; 0.01% (w/v) 2-DG) was 21%, the Inhibition of growth ([3]; 0.03% (w/v) 2-DG) was 79% and the Inhibition of growth ([3]; 0.05% (w/v) 2-DG) was 88%. For the same compound, the Inhibition of growth ([3]; 0.1% (w/v) 2-DG) was 96%, the “2-DG concentration for 50% growth inhibition” value ([3]; RE700A tok1::PPDR5-HXT7 (IT[PDR]), liquid media) was 0.021 % (w/v) and 0.02 % (w/v) and the “2-DG concentration for 50% growth inhibition” value [4] was 0.026 % (w/v). For the same compound, the “2-DG concentration for 50% growth inhibition” value [5] was 0,025 % (w/v).
